The values below are quoted from earlier work in patent publication US9550804B2, “Dosage form to increase prasterone bioavailability” (Health Science Funding, LLC, priority 2011, dated 2017).

Assay in data set [1]: not given
The source holds these as a separate data set.

≈ marks a conversion by molar mass, not a printed value.

As for `C[C@]12CC[C@H](O)CC1=CC[C@@H]1[C@@H]2CC[C@]2(C)C(=O)CC[C@@H]12` [Prasterone, (3S,8R,9S,10R,13S,14S)-3-hydroxy-10,13-dimethyl-3,4,7,8,9,10,11,12,13,14,15,16-dodecahydro-1H-cyclopenta[a]phenan-thren-17(2H)-one], the “log P (octanol-water)” value is listed as 3.23. In addition, the solubility in water in data set [1] is 63.5 µg/mL (≈ 220 µM).
